Measured values as given in patent publication US20230072523A1, “PROCESS AND SYSTEM FOR ACELLULAR THERAPY” (Orgenesis Inc., priority 2020, published 2023).

Assay: acetaminophen cytotoxicity, cell viability by XTT assay
Format: cell-based
Conditions: 48 hrs incubation, control 100%; for viability at 48 h, 5 mM: acetaminophen 5 mM
Description: In the current example, cytotoxicity-induced paracrine EVs were replaced by current existing extracorporeal regimen, in addition to replace depleted body fluids with protective EVs fused during hemodialysis. EV mimetics—Bioxomes or chelator-containing EV mimetics, named Redoxomes as described by us recently in PCT publication no. PCT/IL2019/050391 (incorporated herein by reference) were used. Selected chelator, DSFX—deferoxamine embedded in Redoxomes can be fused with EVs or body fluids, or cells to protect from cytotoxicity damage, prevent liver and kidney failure and mortality, morbidity rate. To establish growth conditions sensitive to proliferation inhibition cytoparameters, calibration of dynamic cell growth parameters was performed by calibration of cell number in CellTiter-Glo Assay (Promega) shown on tables 3 and 4 below in relative units.
Specific protective anti-cytotoxicity example tested on calibrated above assays of EV mimetic proprietary Bioxome, is shown in table below. Cell viability, %, measured by XTT assay (Biological Industries Beit Haemek). Cell viability without treatment was calibrated by dose dependence to serum conditions and cell density. Cell seeding established for 10000, 20000 cells/well in 96 well plates. For RCB001 cells (liver derived mesenchymal like cells)—10,000 cells. For −HepG2 cells—20,000 cells density used. Cells were grown in DMEM plus 10% exosome depleted FBS (ThermoFisher Scientific).

Work on `CC(=O)Nc1ccc(O)cc1` [Acetaminophen] yielded a viability at 48 h, 5 mM (RCB001 cells (liver derived mesenchymal like cells)) of 57 to 81%, a viability at 48 h, 10 mN (RCB001 cells (liver derived mesenchymal like cells), acetaminophen) of 46% and a viability at 48 h, 5 mM (human, HepG2 cells) of 62%. For the same compound, the viability at 48 h, 10 mM (human, HepG2 cells, acetaminophen 10 mM) was 46%.
